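Cells were grown in 96-well plates and exposed to each compound for 48 hours at five concentrations; endpoints were interpolated linearly between bracketing concentrations, or set to the highest concentration if not reached. GI50: concentration for 50% inhibition of growth. TGI: concentration producing complete growth inhibition.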
What was measured:
Assay in all cases: NCI tumour cell line growth inhibition, 48 h
SF-268 CNS = system: SF-268 CNS
M14 melanoma = system: M14 melanoma
NCI-H23 lung = system: NCI-H23 lung
LOX IMVI melanoma = system: LOX IMVI melanoma
OVCAR-4 ovarian = system: OVCAR-4 ovarian
MDA-MB-231 breast = system: MDA-MB-231 breast
RPMI-8226 leukemia = system: RPMI-8226 leukemia
SF-295 CNS = system: SF-295 CNS
SK-MEL-2 melanoma = system: SK-MEL-2 melanoma
RXF 393 renal = system: RXF 393 renal
SK-OV-3 ovarian = system: SK-OV-3 ovarian
MCF7 breast = system: MCF7 breast
SNB-75 CNS = system: SNB-75 CNS
OVCAR-8 ovarian = system: OVCAR-8 ovarian
PC-3 prostate = system: PC-3 prostate
DU-145 prostate = system: DU-145 prostate
BT-549 breast = system: BT-549 breast
CAKI-1 renal = system: CAKI-1 renal
HCT-15 colon = system: HCT-15 colon
OVCAR-5 ovarian = system: OVCAR-5 ovarian
HT29 colon = system: HT29 colon
NCI-H226 lung = system: NCI-H226 lung
MDA-MB-468 breast = system: MDA-MB-468 breast
SNB-19 CNS = system: SNB-19 CNS
U251 CNS = system: U251 CNS
HOP-92 NSCLC = system: HOP-92 NSCLC
IGROV1 ovarian = system: IGROV1 ovarian
KM12 colon = system: KM12 colon
A498 renal = system: A498 renal
TK-10 renal = system: TK-10 renal
COLO 205 colon = system: COLO 205 colon
SF-539 CNS = system: SF-539 CNS
786-0 renal = system: 786-0 renal
NCI-H522 lung = system: NCI-H522 lung
NCI-H460 lung = system: NCI-H460 lung
A549 NSCLC = system: A549 NSCLC
HCT-116 colon = system: HCT-116 colon
MALME-3M melanoma = system: MALME-3M melanoma
ACHN renal = system: ACHN renal
HCC-2998 colon = system: HCC-2998 colon
UACC-62 melanoma = system: UACC-62 melanoma
SN12C renal = system: SN12C renal
HOP-62 NSCLC = system: HOP-62 NSCLC
HS 578T breast = system: HS 578T breast
T-47D breast = system: T-47D breast

**Q.** `COc1cc(/C=C/C(=O)c2nnn(-c3ccc(Cl)cc3)c2C)cc(OC)c1OC` was tested. Which GI50 (SF-268 CNS) did it give?
**A.** 20.9 µM

**Q.** What about the TGI (SF-268 CNS) of the same molecule?
**A.** > 100 µM

**Q.** And the GI50 (M14 melanoma)?
**A.** 3.59 µM

**Q.** What about the TGI (M14 melanoma) of the same molecule?
**A.** > 100 µM

**Q.** And the GI50 (NCI-H23 lung)?
**A.** 6.2 µM

**Q.** What about the TGI (NCI-H23 lung) of the same molecule?
**A.** > 100 µM

**Q.** And the GI50 (LOX IMVI melanoma)?
**A.** 3.06 µM

**Q.** What about the TGI (LOX IMVI melanoma) of the same molecule?
**A.** > 100 µM

**Q.** What about the GI50 (OVCAR-4 ovarian) of the same molecule?
**A.** 4.25 µM

**Q.** And the TGI (OVCAR-4 ovarian)?
**A.** > 100 µM

**Q.** What about the GI50 (MDA-MB-231 breast) of the same molecule?
**A.** 3.48 µM

**Q.** What about the TGI (MDA-MB-231 breast) of the same molecule?
**A.** > 100 µM

**Q.** And the GI50 (RPMI-8226 leukemia)?
**A.** 2.22 µM

**Q.** And the TGI (RPMI-8226 leukemia)?
**A.** > 100 µM

**Q.** And the GI50 (SF-295 CNS)?
**A.** 41.4 µM

**Q.** What about the TGI (SF-295 CNS) of the same molecule?
**A.** > 100 µM

**Q.** And the GI50 (SK-MEL-2 melanoma)?
**A.** > 100 µM

**Q.** What about the TGI (SK-MEL-2 melanoma) of the same molecule?
**A.** > 100 µM

**Q.** What about the GI50 (RXF 393 renal) of the same molecule?
**A.** 6.39 µM

**Q.** And the TGI (RXF 393 renal)?
**A.** > 100 µM

**Q.** And the GI50 (SK-OV-3 ovarian)?
**A.** > 100 µM

**Q.** And the TGI (SK-OV-3 ovarian)?
**A.** > 100 µM

**Q.** And the GI50 (MCF7 breast)?
**A.** 3.23 µM

**Q.** What about the TGI (MCF7 breast) of the same molecule?
**A.** > 100 µM

**Q.** And the GI50 (SNB-75 CNS)?
**A.** 2.83 µM

**Q.** What about the TGI (SNB-75 CNS) of the same molecule?
**A.** > 100 µM

**Q.** What about the GI50 (OVCAR-8 ovarian) of the same molecule?
**A.** 4.15 µM

**Q.** What about the TGI (OVCAR-8 ovarian) of the same molecule?
**A.** > 100 µM

**Q.** What about the GI50 (PC-3 prostate) of the same molecule?
**A.** 3.53 µM

**Q.** What about the TGI (PC-3 prostate) of the same molecule?
**A.** > 100 µM

**Q.** And the GI50 (DU-145 prostate)?
**A.** 3.62 µM

**Q.** And the TGI (DU-145 prostate)?
**A.** > 100 µM

**Q.** What about the GI50 (BT-549 breast) of the same molecule?
**A.** 4.23 µM

**Q.** And the TGI (BT-549 breast)?
**A.** 84.3 µM

**Q.** And the GI50 (CAKI-1 renal)?
**A.** 4.46 µM

**Q.** What about the TGI (CAKI-1 renal) of the same molecule?
**A.** > 100 µM

**Q.** And the GI50 (HCT-15 colon)?
**A.** 3.23 µM

**Q.** And the TGI (HCT-15 colon)?
**A.** > 100 µM

**Q.** And the GI50 (OVCAR-5 ovarian)?
**A.** > 100 µM

**Q.** And the TGI (OVCAR-5 ovarian)?
**A.** > 100 µM

**Q.** And the GI50 (HT29 colon)?
**A.** 4.1 µM

**Q.** What about the TGI (HT29 colon) of the same molecule?
**A.** > 100 µM

**Q.** And the GI50 (NCI-H226 lung)?
**A.** 7.53 µM

**Q.** What about the TGI (NCI-H226 lung) of the same molecule?
**A.** > 100 µM

**Q.** What about the GI50 (MDA-MB-468 breast) of the same molecule?
**A.** 3.38 µM

**Q.** What about the TGI (MDA-MB-468 breast) of the same molecule?
**A.** > 100 µM

**Q.** What about the GI50 (SNB-19 CNS) of the same molecule?
**A.** 14.7 µM

**Q.** What about the TGI (SNB-19 CNS) of the same molecule?
**A.** > 100 µM

**Q.** What about the GI50 (U251 CNS) of the same molecule?
**A.** 4.1 µM

**Q.** What about the TGI (U251 CNS) of the same molecule?
**A.** > 100 µM

**Q.** And the GI50 (HOP-92 NSCLC)?
**A.** 2.55 µM

**Q.** What about the TGI (HOP-92 NSCLC) of the same molecule?
**A.** 23.6 µM

**Q.** And the GI50 (IGROV1 ovarian)?
**A.** > 100 µM

**Q.** What about the TGI (IGROV1 ovarian) of the same molecule?
**A.** > 100 µM

**Q.** And the GI50 (KM12 colon)?
**A.** 8.53 µM

**Q.** And the TGI (KM12 colon)?
**A.** > 100 µM

**Q.** And the GI50 (A498 renal)?
**A.** > 100 µM

**Q.** And the TGI (A498 renal)?
**A.** > 100 µM

**Q.** What about the GI50 (TK-10 renal) of the same molecule?
**A.** > 100 µM

**Q.** And the TGI (TK-10 renal)?
**A.** > 100 µM

**Q.** And the GI50 (COLO 205 colon)?
**A.** > 100 µM

**Q.** What about the TGI (COLO 205 colon) of the same molecule?
**A.** > 100 µM

**Q.** And the GI50 (SF-539 CNS)?
**A.** > 100 µM

**Q.** What about the TGI (SF-539 CNS) of the same molecule?
**A.** > 100 µM

**Q.** What about the GI50 (786-0 renal) of the same molecule?
**A.** 8.67 µM

**Q.** What about the TGI (786-0 renal) of the same molecule?
**A.** 62 µM

**Q.** And the GI50 (NCI-H522 lung)?
**A.** 4.06 µM

**Q.** And the TGI (NCI-H522 lung)?
**A.** > 100 µM

**Q.** What about the GI50 (NCI-H460 lung) of the same molecule?
**A.** 3.59 µM

**Q.** What about the TGI (NCI-H460 lung) of the same molecule?
**A.** > 100 µM

**Q.** And the GI50 (A549 NSCLC)?
**A.** 6.11 µM

**Q.** And the TGI (A549 NSCLC)?
**A.** > 100 µM

**Q.** What about the GI50 (HCT-116 colon) of the same molecule?
**A.** 3.55 µM

**Q.** What about the TGI (HCT-116 colon) of the same molecule?
**A.** > 100 µM

**Q.** What about the GI50 (MALME-3M melanoma) of the same molecule?
**A.** 7.35 µM

**Q.** What about the TGI (MALME-3M melanoma) of the same molecule?
**A.** > 100 µM

**Q.** And the GI50 (ACHN renal)?
**A.** 5.82 µM

**Q.** And the TGI (ACHN renal)?
**A.** > 100 µM

**Q.** And the GI50 (HCC-2998 colon)?
**A.** > 100 µM

**Q.** And the TGI (HCC-2998 colon)?
**A.** > 100 µM

**Q.** What about the GI50 (UACC-62 melanoma) of the same molecule?
**A.** 5.59 µM

**Q.** What about the TGI (UACC-62 melanoma) of the same molecule?
**A.** > 100 µM

**Q.** And the GI50 (SN12C renal)?
**A.** 4.15 µM

**Q.** And the TGI (SN12C renal)?
**A.** > 100 µM

**Q.** What about the GI50 (HOP-62 NSCLC) of the same molecule?
**A.** 11 µM

**Q.** And the TGI (HOP-62 NSCLC)?
**A.** > 100 µM

**Q.** What about the GI50 (HS 578T breast) of the same molecule?
**A.** 5.47 µM

**Q.** What about the TGI (HS 578T breast) of the same molecule?
**A.** > 100 µM

**Q.** What about the GI50 (T-47D breast) of the same molecule?
**A.** > 100 µM

**Q.** What about the TGI (T-47D breast) of the same molecule?
**A.** > 100 µM

**Q.** `CCN(Cc1ccc(Cl)s1)c1ccc(CO)c(Cl)c1` was tested. Which GI50 (MDA-MB-468 breast) did it give?
**A.** 0.0193 µM

**Q.** What about the TGI (MDA-MB-468 breast) of the same molecule?
**A.** 0.0526 µM

**Q.** With `CC(=O)Oc1ccccc1C(=O)/C=C/c1cccc([N+](=O)[O-])c1` as the molecule, how does the GI50 (MDA-MB-468 breast) read?
**A.** 2.03 µM

**Q.** And the TGI (MDA-MB-468 breast)?
**A.** 4 µM

**Q.** With `O=C1NC(=O)C(c2cccc(Cl)c2)=C1Nc1ccc(O)c(Cl)c1` as the molecule, how does the GI50 (MDA-MB-468 breast) read?
**A.** 5.94 µM

**Q.** What about the TGI (MDA-MB-468 breast) of the same molecule?
**A.** > 20.3 µM

**Q.** Which results are given for `COc1ccc(C(=O)N2c3ccccc3Sc3ccccc32)c(OC)c1`?
**A.** GI50 (MDA-MB-468 breast): 0.327 µM; TGI (MDA-MB-468 breast): 56.1 µM

**Q.** How did the GI50 (MDA-MB-468 breast) turn out when `COC(=O)c1nc(-c2ccccc2)oc1S(=O)(=O)n1nc(C)cc1N` was run?
**A.** 3.98 µM

**Q.** And the TGI (MDA-MB-468 breast)?
**A.** 16.9 µM

From PubChem BioAssay (NCI)
